Among the data in ChEMBL document CHEMBL4219245, “Development of piperazine-based hydroxamic acid inhibitors against falcilysin, an essential malarial protease” (Bioorg Med Chem Lett, 2018) are IC50 values, retold here.

A word on the IC50: it is the concentration that gives 50% inhibition. The low end stands for greater potency, the high end for weaker potency.

SMILES strings stand for the structures. A value given as a limit tells only on which side of the number the result lay.

One experiment deals with T1, Falcilysin (Plasmodium falciparum (isolate 3D7), UniProt Q76NL8).
T1 sequence (Q76NL8 whole entry): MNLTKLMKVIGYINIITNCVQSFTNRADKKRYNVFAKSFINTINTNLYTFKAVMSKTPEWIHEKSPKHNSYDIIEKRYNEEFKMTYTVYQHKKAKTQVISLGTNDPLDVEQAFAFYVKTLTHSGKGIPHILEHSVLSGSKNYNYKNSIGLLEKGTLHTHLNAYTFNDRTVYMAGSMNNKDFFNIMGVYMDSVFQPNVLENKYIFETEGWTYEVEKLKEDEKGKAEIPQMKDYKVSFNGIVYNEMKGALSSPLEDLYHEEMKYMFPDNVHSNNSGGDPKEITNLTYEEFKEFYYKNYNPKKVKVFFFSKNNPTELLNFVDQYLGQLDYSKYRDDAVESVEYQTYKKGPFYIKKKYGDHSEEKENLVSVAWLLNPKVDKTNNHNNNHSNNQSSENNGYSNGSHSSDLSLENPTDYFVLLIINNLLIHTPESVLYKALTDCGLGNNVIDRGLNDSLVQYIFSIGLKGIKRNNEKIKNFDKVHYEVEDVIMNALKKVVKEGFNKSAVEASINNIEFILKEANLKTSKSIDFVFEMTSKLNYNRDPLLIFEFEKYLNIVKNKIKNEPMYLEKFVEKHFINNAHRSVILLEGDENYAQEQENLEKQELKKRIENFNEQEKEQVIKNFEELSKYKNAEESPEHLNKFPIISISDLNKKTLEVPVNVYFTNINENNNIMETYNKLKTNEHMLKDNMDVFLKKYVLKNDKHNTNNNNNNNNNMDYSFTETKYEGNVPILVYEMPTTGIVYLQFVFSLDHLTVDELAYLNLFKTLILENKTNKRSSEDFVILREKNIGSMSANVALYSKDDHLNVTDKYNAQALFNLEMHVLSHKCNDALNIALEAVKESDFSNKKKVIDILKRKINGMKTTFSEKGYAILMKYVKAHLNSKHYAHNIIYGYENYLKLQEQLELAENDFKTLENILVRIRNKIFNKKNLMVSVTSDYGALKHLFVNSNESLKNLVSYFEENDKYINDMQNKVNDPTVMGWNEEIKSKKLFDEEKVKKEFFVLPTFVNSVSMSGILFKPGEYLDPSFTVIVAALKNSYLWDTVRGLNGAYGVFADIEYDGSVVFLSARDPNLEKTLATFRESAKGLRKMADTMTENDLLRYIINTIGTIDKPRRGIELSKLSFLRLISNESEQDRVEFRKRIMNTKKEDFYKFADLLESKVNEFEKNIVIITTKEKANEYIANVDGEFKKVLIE
As to the kind of experiment: Inhibition of Plasmodium falciparum 3D7 FLN (55 to 1193 residues) expressed in Escherichia coli BL21 using Dabcyl-HKRHSFRMRG-EDANS as substrate preincubated for 5 mins followed by substrate addition measured for 10 mins by fluorescence assay.

A further experiment has as its system Plasmodium falciparum. Briefly: Parasiticidal activity against ring stage Plasmodium falciparum 3D7 infected in human RBC after 70 to 80 hrs by acridine orange staining-based assay. The experiment is classed as functional, organism-based. As to conditions: 3D7, Erythrocyte.

Consider `COc1ccc(S(=O)(=O)N2CCN(C(=O)c3ccc(-c4ccccc4)cc3)CC2C(=O)NO)cc1` (configuration not stated), for which the IC50 at Falcilysin stood at 10 µM; with Plasmodium falciparum it was 5 µM.
With `COc1ccc(S(=O)(=O)N2CCN(C(=O)c3ccccc3)CC2C(=O)NO)cc1` (configuration not stated), the figures for the IC50 against Falcilysin and in the experiment on Plasmodium falciparum were greater than 50 µM and greater than 10 µM, respectively.
`COc1ccc(S(=O)(=O)N2CCN(C(=O)c3ccc(Br)cc3)CC2C(=O)NO)cc1` (configuration not stated): the IC50 against Falcilysin is 14 µM; with Plasmodium falciparum it was greater than 10 µM.
Consider `O=C(NO)C1CN(C(=O)c2ccccc2)CCN1S(=O)(=O)c1ccc(Br)cc1` (configuration not stated), for which the IC50 at Falcilysin is 35 µM; in the experiment with Plasmodium falciparum, greater than 10 µM.
For `O=C(NO)C1CN(C(=O)c2ccc(-c3ccccc3)cc2)CCN1S(=O)(=O)c1ccc(Br)cc1` (configuration not stated), in that order: 1.4 µM and 1.4 µM.
Taken in the same sequence, the figures for `O=C(NO)C1CN(C(=O)c2ccc(F)cc2)CCN1S(=O)(=O)c1ccc(Br)cc1` (configuration not stated) were 16 µM and greater than 10 µM.
Turning to `CCCCN1CCN(S(=O)(=O)c2ccccc2)C(C(=O)NO)C1` (configuration not stated), the half-maximal inhibitory concentration (IC50) against Falcilysin is greater than 50 µM; with Plasmodium falciparum, greater than 10 µM.
As to `O=C(NO)C1CN(C(=O)c2ccc(F)cc2)CCN1S(=O)(=O)c1ccccc1` (configuration not stated), the IC50 against Falcilysin is greater than 50 µM; in the experiment on Plasmodium falciparum, greater than 10 µM.
For `O=C(NO)C1CN(C(=O)c2cccc(F)c2)CCN1S(=O)(=O)c1ccccc1` (configuration not stated), the IC50 at Falcilysin is greater than 50 µM; in the experiment with Plasmodium falciparum, greater than 10 µM.
For the compound `O=C(NO)C1CN(CCCO)CCN1S(=O)(=O)c1ccccc1` (configuration not stated), the IC50 was greater than 50 µM on Falcilysin and greater than 10 µM with Plasmodium falciparum.
Turning to `O=C(NO)C1CN(C(=O)c2ccc(Cl)c(Cl)c2)CCN1S(=O)(=O)c1ccccc1` (configuration not stated), the results for the IC50 against Falcilysin and in the experiment on Plasmodium falciparum were 5 µM and greater than 10 µM, respectively.
`O=C(NO)C1CN(C(=O)c2ccccc2)CCN1S(=O)(=O)c1ccccc1` (configuration not stated): the IC50 is 40 µM against Falcilysin and greater than 10 µM in the experiment on Plasmodium falciparum.
Taken in the same sequence, the figures for `O=C(NO)C1CN(C(=O)c2ccc(-c3ccccc3)cc2)CCN1S(=O)(=O)c1ccccc1` (configuration not stated) were 8 µM and greater than 10 µM.
Regarding `O=C(NO)C1CN(C(=O)c2ccccc2Br)CCN1S(=O)(=O)c1ccccc1` (configuration not stated), the IC50 was 7 µM at Falcilysin and greater than 10 µM in the experiment on Plasmodium falciparum.
As to `COc1ccc(S(=O)(=O)N2CCN(C(=O)c3cccc(Br)c3)CC2C(=O)NO)cc1` (configuration not stated), the results for the IC50 against Falcilysin and with Plasmodium falciparum were 10 µM and greater than 10 µM, respectively.
On to `O=C(NO)C1CN(C(=O)c2ccc(Br)cc2)CCN1S(=O)(=O)c1ccccc1` (configuration not stated), for which the values for the IC50 on Falcilysin and in the experiment with Plasmodium falciparum were 13 µM and greater than 10 µM, respectively.
Consider `CCC(=O)N1CCN(S(=O)(=O)c2ccc(Br)cc2)C(C(=O)NO)C1` (configuration not stated), for which the IC50 against Falcilysin is greater than 50 µM; in the experiment with Plasmodium falciparum, greater than 10 µM.
For `COc1ccc(S(=O)(=O)N2CCN(C(=O)c3ccc(Cl)c(Cl)c3)CC2C(=O)NO)cc1` (configuration not stated), the figures for the IC50 on Falcilysin and in the experiment with Plasmodium falciparum were 6 µM and greater than 10 µM, respectively.
Consider `COc1ccc(S(=O)(=O)N2CCN(C(=O)c3ccccc3Br)CC2C(=O)NO)cc1` (configuration not stated), for which the IC50 on Falcilysin was 8 µM; with Plasmodium falciparum it was greater than 10 µM.
Consider `COc1ccc(S(=O)(=O)N2CCN(S(=O)(=O)c3ccccc3)CC2C(=O)NO)cc1` (configuration not stated), for which the IC50 was greater than 50 µM against Falcilysin and greater than 10 µM in the experiment on Plasmodium falciparum.
For `O=C(NO)C1CN(C(=O)c2cccc(F)c2)CCN1S(=O)(=O)c1ccc(Br)cc1` (configuration not stated), the IC50 was 31 µM at Falcilysin and greater than 10 µM with Plasmodium falciparum.
